# Patent US20170247326A1, “Substituted Pyrrolidine Carboxamide Compounds” (EPIZYME, INC., priority 2014, published 2017)
# Target: T1, SMYD2 (Homo sapiens, UniProt Q9NRG4)
# T1 construct: Full length SMYD2 (NP_064582.2) was cloned; His6 (N, cleaved yes); FLAG (N); made in house; host or cells: Sf9 insect cells
# Assay: SMYD2 biochemical assay (3H-SAM, biotinylated peptide substrate, Flashplate)
# Conditions: Table 1; average of n = 1 to n = 50; read-out: SMYD2 Biochem IC50
# Excerpt: S-adenosylmethionine (SAM), S-adenosylhomocysteine (SAH), bicine, Tween20, dimethylsulfoxide (DMSO), bovine skin gelatin (BSG), and Tris(2-carboxyethyl)phosphine hydrochloride (TCEP) were purchased from Sigma-Aldrich at the highest level of purity possible. ^3H-SAM was purchase from American Radiolabeled Chemicals with a specific activity of 80 Ci/mmol. 384-well streptavidin Flashplates were purchased from PerkinElmer.
# Peptide was synthesized with a N-terminal linker-affinity tag motif and a C-terminal amide cap by 21st Century Biochemicals. The peptide was high high-performance liquid chromatography (HPLC) purified to greater than 95% purity and confirmed by liquid chromatography mass spectrometry (LC-MS). The sequence was […](K-Biot)-amide. (SEQ ID NO: 3)
# Full length SMYD2 (NP_064582.2) was cloned into a pFastbac-Htb-lic vector with an N-terminal His6 tag and FLAG tag, preceded by a TEV protease cleavage site. The protein was expressed in Sf9 insect cells. Cells were resuspended in lysis buffer (25 mM HEPES-NaOH, pH 7.5, 200 mM NaCl, 5% glycerol, and 5 mM […] and lysed by sonication. The protein was purified by Ni-NTA (Qiagen), followed by TEV cleavage to remove the His6 tag, subtractive Ni-NTA (Qiagen), and gel filtration chromatography using an S200 column (GE Healthcare). Purified protein was stored in 20 mM Tris-HCl, pH 8.0, 100 mM NaCl, and 1 mM TCEP.
# General Procedure for SMYD2 Enzyme Assays on Peptide Substrates
# The assays were all performed in a buffer consisting of 20 mM Bicine (pH=7.6), 1 mM TCEP, 0.005% Bovine Skin Gelatin, and 0.002% Tween20, prepared on the day of use. Compounds in 100% DMSO (1 ul) were spotted into a polypropylene 384-well V-bottom plates (Greiner) using a Platemate Plus outfitted with a 384-channel head (Thermo Scientific). DMSO (1 ul) was added to Columns 11, 12, 23, 24, rows A-H for the maximum signal control and 1 ul of SAH, a known product and inhibitor of SMYD2, was added to columns 11, 12, 23, 24, rows I-P for the minimum signal control. A cocktail (40 ul) containing the SMYD2 enzyme was added by Multidrop Combi (Thermo-Fisher). The compounds were allowed to incubate with SMYD2 for 30 min at room temperature, then a cocktail (10 ul) containing ^3H-SAM and peptide was added to initiate the reaction (final volume=51 ul). The final concentrations of the components were as follows: SMYD2 was 1.5 nM, ^3H-SAM was 10 nM, and peptide was 60 nM, SAH in the minimum signal control wells was 1000 uM, and the DMSO concentration was 2%. The assays were stopped by the addition of non-radioactive SAM (10 ul) to a final concentration of 600 uM, which dilutes the ^3H-SAM to a level where its incorporation into the peptide substrate is no longer detectable. 50 ul of the reaction in the 384-well polypropylene plate was then transferred to a 384-well Flashplate and the biotinylated peptides were allowed to bind to the streptavidin surface for at least 1 hour before being washed three times with 0.1% Tween20 in a Biotek ELx405 plate washer. The plates were then read in a PerkinElmer TopCount plate reader to measure the quantity of ^3H-labeled peptide bound to the Flashplate surface, measured as disintegrations per minute (dpm) or alternatively, referred to as counts per minute (cpm).
# Where dpm=disintegrations per minute, cmpd=signal in assay well, and min and max are the respective minimum and maximum signal controls.
# Where top and bottom are the normally allowed to float, but may be fixed at 100 or 0 respectively in a 3-parameter fit. The Hill Coefficient normally allowed to float but may also be fixed at 1 in a 3-parameter fit. I is the compound concentration.
# SMYD2 biochemical assay data for representative Compounds of the Disclosure are presented in Tables 1, 3, and 4 in the column titled “SMYD2 Bicohem IC50 (μM).”
# T1 sequence (Q9NRG4 whole entry): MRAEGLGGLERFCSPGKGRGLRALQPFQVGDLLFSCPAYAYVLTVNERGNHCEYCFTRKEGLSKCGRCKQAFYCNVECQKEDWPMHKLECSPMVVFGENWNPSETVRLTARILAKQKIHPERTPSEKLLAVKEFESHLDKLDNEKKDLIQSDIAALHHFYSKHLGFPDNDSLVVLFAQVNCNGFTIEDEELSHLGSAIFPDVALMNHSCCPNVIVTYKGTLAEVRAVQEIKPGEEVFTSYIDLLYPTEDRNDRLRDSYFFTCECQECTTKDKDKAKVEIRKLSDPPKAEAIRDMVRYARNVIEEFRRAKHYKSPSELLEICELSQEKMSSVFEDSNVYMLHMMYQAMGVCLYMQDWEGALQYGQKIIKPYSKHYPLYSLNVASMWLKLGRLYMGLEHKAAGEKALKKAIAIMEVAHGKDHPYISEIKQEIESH
row,IC50 [µM],SMILES
1,> 50,"C[C@H]1CN(C2CC2)C[C@@H]1NC(=O)c1ccc2[nH]c(=O)[nH]c2c1 (racemic) [compound 22, (±)-trans-N-(1-cyclopropyl-4-methylpyrrolidin-3-yl)-2-oxo-2,3-dihydro-1H-benzo[d]imidazole-5-carboxamide]"
2,7.1,"CCc1cc(C(=O)N[C@@H]2CN(C3CC3)C[C@@H]2C)ns1 (racemic) [compound 12, (±)-cis-N-(1-cyclopropyl-4-methylpyrrolidin-3-yl)-5-ethylisothiazole-3-carboxamide]"
3,> 50,"C[C@H]1CN(C2CC2)C[C@@H]1NC(=O)Cc1ccc2c(c1)NC(=O)CO2 (racemic) [compound 3, (±)-trans-N-(1-cyclopropyl-4-methylpyrrolidin-3-yl)-2-(3-oxo-3,4-dihydro-2H-benzo[b][1,4]oxazin-6-yl)acetamide]"
4,1.4,"C[C@H]1CN(C2CC2)C[C@H]1NC(=O)c1cn(C2CC2)nn1 (racemic) [compound 19, (±)-cis-1-cyclopropyl-N-(1-cyclopropyl-4-methylpyrrolidin-3-yl)-1H-1,2,3-triazole-4-carboxamide]"
5,> 50,"C[C@H]1CN(C2CC2)C[C@H]1NC(=O)c1ccc2[nH]c(=O)[nH]c2c1 (racemic) [compound 23, (±)-cis-N-(1-cyclopropyl-4-methylpyrrolidin-3-yl)-2-oxo-2,3-dihydro-1H-benzo[d]imidazole-5-carboxamide]"
6,> 50,"C[C@H]1CN(C2CC2)C[C@@H]1NC(=O)c1ccc(N2CCCC2)cc1 (racemic) [compound 20, (±)-trans-N-(1-cyclopropyl-4-methylpyrrolidin-3-yl)-4-(pyrrolidin-1-yl)benzamide]"
7,> 50,"CCc1cc(C(=O)N[C@H]2CN(C3CC3)C[C@@H]2C)ns1 (racemic) [compound 11, (±)-trans-N-(1-cyclopropyl-4-methylpyrrolidin-3-yl)-5-ethylisothiazole-3-carboxamide]"
8,> 50,"C[C@H]1CN(C2CC2)C[C@H]1NC(=O)c1ccc(N2CCCC2)cc1 (racemic) [compound 21, (±)-cis-N-(1-cyclopropyl-4-methylpyrrolidin-3-yl)-4-(pyrrolidin-1-yl)benzamide]"

# Same assay, conditions: Table 3; average of n = 1 to n = 50; read-out: SMYD2 Biochem IC50
row,IC50 [µM],SMILES
1,> 50,"CC(C)N1C[C@H](C)[C@H](NC(=O)c2cc(O)c3c(c2)OCC(=O)N3)C1 (racemic) [compound 85, (±)-cis-5-hydroxy-N-[4-methyl-1-(propan-2-yl)pyrrolidin-3-yl]-3-oxo-3,4-dihydro-2H-1,4-benzoxazine-7-carboxamide]"
2,5.09,"CCc1cnnc(C(=O)N[C@@H]2CN(C(C)C)C[C@@H]2C)c1 (racemic) [compound 96, (±)-cis-5-ethyl-N-[4-methyl-1-(propan-2-yl)pyrrolidin-3-yl]pyridazine-3-carboxamide]"
3,> 50,"CC(C)N1C[C@H](C)[C@H](NC(=O)c2nc(C3CC3)no2)C1 (racemic) [compound 81, (±)-cis-3-cyclopropyl-N-[4-methyl-1-(propan-2-yl)pyrrolidin-3-yl]-1,2,4-oxadiazole-5-carboxamide]"
4,0.611,"CCN1C[C@H](C)[C@H](NC(=O)c2cc(C3CC3)cnn2)C1 (racemic) [compound 100, (±)-cis-5-cyclopropyl-N-(1-ethyl-4-methylpyrrolidin-3-yl)pyridazine-3-carboxamide]"
5,0.694,"CC(C)N1C[C@H](C)[C@H](NC(=O)c2cc(C3CC3)ccn2)C1 (racemic) [compound 105, (±)-cis-4-cyclopropyl-N-[4-methyl-1-(propan-2-yl)pyrrolidin-3-yl]pyridine-2-carboxamide]"
6,> 50,"CC(C)N1C[C@H](C)[C@H](NC(=O)c2ccc(C3CC3)[nH]c2=O)C1 (racemic) [compound 83, (±)-cis-6-cyclopropyl-N-[4-methyl-1-(propan-2-yl)pyrrolidin-3-yl]-2-oxo-1,2-dihydropyridine-3-carboxamide]"
7,0.776,"CC(C)N1C[C@H](C)[C@H](NC(=O)c2cc(C3CC3)sn2)C1 (racemic) [compound 93, (±)-cis-5-cyclopropyl-N-[4-methyl-1-(propan-2-yl)pyrrolidin-3-yl]-1,2-thiazole-3-carboxamide]"

# Continued, compound first:
row,SMILES,IC50 [µM]
1,"CC(C)N1C[C@@H](C)[C@H](NC(=O)c2cncc(C3CC3)n2)C1 (racemic) [compound 43, (±)-trans-6-cyclopropyl-N-[4-methyl-1-(propan-2-yl)pyrrolidin-3-yl]pyrazine-2-carboxamide]",> 50
2,"CC(C)N1C[C@@H](C)[C@H](NC(=O)c2nnc(C3CC3)o2)C1 (racemic) [compound 49, (±)-trans-5-cyclopropyl-N-[4-methyl-1-(propan-2-yl)pyrrolidin-3-yl]-1,3,4-oxadiazole-2-carboxamide]",26.8
3,"CC(C)N1C[C@H](C)[C@H](NC(=O)c2ccc3c(c2)OCC(=O)N3)C1 (racemic) [compound 29, (±)-cis-N-[4-methyl-1-(propan-2-yl)pyrrolidin-3-yl]-3-oxo-3,4-dihydro-2H-1,4-benzoxazine-7-carboxamide]",> 50
4,"CC(C)N1C[C@H](C)[C@H](NC(=O)c2nc(C3CC3)cs2)C1 (racemic) [compound 35, (±)-cis-4-cyclopropyl-N-[4-methyl-1-(propan-2-yl)pyrrolidin-3-yl]-1,3-thiazole-2-carboxamide]",> 50
5,"CC(C)N1C[C@@H](C)[C@H](NC(=O)c2cn(C3CC3)nn2)C1 (racemic) [compound 26, (±)-trans-1-cyclopropyl-N-[4-methyl-1-(propan-2-yl)pyrrolidin-3-yl]-1H-1,2,3-triazole-4-carboxamide]",19.3
6,"CC(=O)N[C@@H]1CN(C(C)C)C[C@H]1C (racemic) [compound 58, (±)-trans-N-[4-methyl-1-(propan-2-yl)pyrrolidin-3-yl]acetamide]",> 50
7,"CC(C)N1C[C@H](C)[C@H](NC(=O)c2noc(C3CC3)n2)C1 (racemic) [compound 38, (±)-cis-5-cyclopropyl-N-[4-methyl-1-(propan-2-yl)pyrrolidin-3-yl]-1,2,4-oxadiazole-3-carboxamide]",> 50
8,"CC(C)N1C[C@H](C)[C@H](NC(=O)c2cc(C3CC3)ncn2)C1 (racemic) [compound 50, (±)-cis-6-cyclopropyl-N-[4-methyl-1-(propan-2-yl)pyrrolidin-3-yl]pyrimidine-4-carboxamide]",16.7
9,"CC(C)N1C[C@H](C)[C@H](NC(=O)c2ncc(C3CC3)o2)C1 (racemic) [compound 76, (±)-cis-5-cyclopropyl-N-[4-methyl-1-(propan-2-yl)pyrrolidin-3-yl]-1,3-oxazole-2-carboxamide]",6.77

# Same assay, conditions: Table 4; average of n = 1 to n = 50; read-out: SMYD2 Biochem IC50
row,IC50 [µM],SMILES
1,2.2,"CC(C)N1C[C@H](C)[C@H](NC(=O)c2cn(C3CC3)cn2)C1 (stereo in doubt) [compound 123, rac-1-cyclopropyl-N-((3R,4R)-1-isopropyl-4-methylpyrrolidin-3-yl)-1H-imidazole-4-carboxamide]"
2,6.4,"CC(C)N1C[C@@H](N(C)C(=O)c2cc(C3CC3)cnn2)[C@@H](C)C1 (racemic) [compound 130, rac-5-cyclopropyl-N-((3R,4R)-1-isopropyl-4-methylpyrrolidin-3-yl)-N-methylpyridazine-3-carboxamide]"
3,10.4,"CC(C)c1cnnc(C(=O)N[C@@H]2CN(C(C)C)C[C@@H]2C)c1 (racemic) [compound 124, rac-5-isopropyl-N-((3R,4R)-1-isopropyl-4-methylpyrrolidin-3-yl)pyridazine-3-carboxamide]"
